Where two headings read alike, the source gives them in different places. Marks after values point to notes of the source that are not given here. Square brackets hold non-standard residues; d marks the D form. Primed or numbered codes have the meaning given here. Peptide text beside a SMILES is read from it. * marks the point of attachment. Dabcyl′ = CN(C)c1ccc(/N=N/c2ccc(C(=O)*)cc2)cc1; Dabcyl = CN(C)c1ccc(N=Nc2ccc(C(=O)*)cc2)cc1; EDANS = O=S(=O)(O)c1cccc2c(NCCN*)cccc12; Sta = CC(C)C[C@H](N)[C@@H](O)CC(=O)O; Isovaleryl = CC(C)CC(=O)*
Columns and labels:
[1] = target: T1, 3CL Protease (Severe acute respiratory syndrome coronavirus 2, UniProt P0DTC1); format: biochemical, SARS-CoV-2; settings: saliva samples
T1 construct: 6xHIS-tag (N); TEV-protease cleavage site (ENLYFQG) (N); made in house
Method: (§1) The purpose of adding protease inhibitors to the buffer is to reduce nonspecific saliva activity and increase signal to noise ratio. 29 inhibitors were tested using a competitive enzymatic activity assay of 3CL Protease in saliva samples.

[2] = tested on: non-specific protease activity in saliva; experiment: Inhibitor test in saliva samples: non-specific protease activity; format: biochemical
Method: as §1

[3] = tested on: Buccal sample non-specific protease activity; experiment: Inhibitor test in buccal samples: non-specific protease activity; format: biochemical
Method: Optimizing Inhibitor Cocktail to Maximize Buccal Sample Non-Specific Protease Activity Inhibition
(§2) 29 inhibitors were tested using a competitive enzymatic activity assay of 3CL protease in buccal samples.

[4] = target: T2, 3CL (Severe acute respiratory syndrome coronavirus 2, UniProt P0DTC1); format: biochemical, SARS-CoV-2
T2 construct: 6xHIS-tag (N); TEV-protease cleavage site (ENLYFQG) (N); made in house; host or cells: Rosetta BL21 E. coli, pET14b
Method: In order to find the final and optimal reaction conditions, several parameters were tested:
Reducing agent: DTT and TCEP were tested at various concentrations to see if enzyme activity was affected.

[5] = target: T1, 3CL Protease; format: biochemical, SARS-CoV-2
Method: as §2

[6] = target: SARS-CoV-2 3CL Pro (Severe acute respiratory syndrome coronavirus 2, UniProt P0DTC1); settings: for Enzymatic activity, Slope, SARS-CoV-2: enzyme 150 ng/reaction; for % Enz activity, SARS-CoV-2: Table 5: relative to the substrate's own protease = 100
[7] = tested on: Saliva; experiment: Substrate cleavage by saliva (nonspecific activity); format: biochemical
Method: For these enzymatic reactions 150 ng/well enzyme was used under final and optimized assay conditions, i.e. […] Experiment were tested with 3 different saliva samples; representative results are shown.

[8] = tested on: HRV 3C protease; experiment: Substrate cleavage by HRV 3C protease; format: biochemical, Human Rhinovirus (HRV); settings: for % Enz activity, HRV: Table 5: relative to the substrate's own protease = 100
Method: (§3) Running condition: Substrate concentration-5 uM, enzyme concentration 150 ng/reaction.
(§4) Enzymatic activity (RFU/min) of SARS-CoV-2, HCoV-229E and HRV 3CL and 3C proteases using peptide (SEQ ID NO: 8) is summarized in Table 6. Substrate concentration-1 μM, enzyme concentration 150 ng/reaction.

[9] = target: T3, HCoV-229E 3CL protease (Human coronavirus 229E, UniProt P0C6U2); experiment: Substrate cleavage by HCoV-229E 3CL protease; format: biochemical; settings: for Enzymatic activity, Slope, HCoV-229E / cross reactivity SARS-CoV-2 versus HCoV-229E protease: enzyme 150 ng/reaction; for % Enz activity, HCoV-229E: Table 5: relative to the substrate's own protease = 100; for cross reactivity SARS-CoV-2 versus HCoV-229E protease: substrate 5 uM
T3 construct: 6xHIS-tag (N); TEV-protease cleavage site (ENLYFQG) (N); made in house; host or cells: Rosetta BL21 E. coli, pET14b
Method: as §3, §4

[10] = Table 2: 150 ng/well enzyme, 5 μM substrate, Dabcyl/EDANS, final buffer
[11] = Table 2: 5 μM substrate, Dabcyl/EDANS, final buffer
[12] = Table 4: substrate 5 uM, enzyme 150 ng/reaction
[13] = Table 3: 1 uM substrate, 488/535 nm, gain 1400, buffer without BSA

For 2,6 PDA, the “inhibition of 3CL specific activity” value [1] was “non significant inhibition”, the “non-specific protease activity in saliva” value [2] was “decreased” and the “ranking among 29 inhibitors tested” value [3] was “four best inhibitors”.

With `O[C@@H](CS)[C@@H](O)CS` [DTT] the “effect of reducing agent on enzyme activity” value ([4]; various concentrations, DTT 5 mM) was “most effective at preserving enzyme activity”.

In the case of `[Cl-].[Na+]` [NaCl], the “effect of potential enzyme mediator on enzyme activity” value [4] is reported as “No positive effect”.

For `O=S(=O)(F)Cc1ccccc1` [PMSF], the “inhibition of 3CL specific activity” value [1] was “non significant inhibition”, the “non-specific protease activity in saliva” value [2] was “decreased” and the non-specific protease activity [3] was “decreased”. The “ranking among 29 inhibitors tested” value [3] was “four best inhibitors” and the “inhibition of 3CL specific activity” value ([5]; buccal samples) was “non significant inhibition”.

In the case of `OCC(O)CO` [glycerol], the “effect of potential enzyme mediator on enzyme activity” value [4] is reported as “No positive effect”.

For `CC(C)CC(=O)N[C@H](C(=O)N[C@H](C(=O)N[C@@H](CC(C)C)[C@@H](O)CC(=O)N[C@@H](C)C(=O)N[C@@H](CC(C)C)[C@@H](O)CC(=O)O)C(C)C)C(C)C` [pepstatin] (Isovaleryl-VV[Sta]A[Sta]-OH), the non-specific protease activity [3] was “decreased” and the “inhibition of 3CL specific activity” value [5] was “non significant inhibition”.

For AC-DEVD-CHO, the “inhibition of 3CL specific activity” value [1] was “non significant inhibition” and the “non-specific protease activity in saliva” value [2] was “decreased”.

In the case of Aprotinin, the “inhibition of 3CL specific activity” value [1] is reported as “non significant inhibition”, the “non-specific protease activity in saliva” value [2] is reported as “decreased” and the non-specific protease activity [3] is reported as “decreased”. The “inhibition of 3CL specific activity” value ([5]; buccal samples) was “non significant inhibition”.

With Dabcyl-AVLQSGF-{EDANS} [Substrate#3] the Enzyme [6, 10] was 354 +/− 18 and the Saliva [7, 11] was 47 +/− 5.

With “Dabcyl-AVLQSGFRK-EDANS ({Dabcyl′}-AVLQSGFRK-{EDANS}; SMILES CC(C)C[C@H](NC(=O)[C@@H](NC(=O)[C@H](C)NC(=O)c1ccc(/N=N/c2ccc(N(C)C)cc2)cc1)C(C)C)C(=O)N[C@@H](CCC(N)=O)C(=O)N[C@@H](CO)C(=O)NCC(=O)N[C@@H](Cc1ccccc1)C(=O)N[C@@H](CCCNC(=N)N)C(=O)N[C@@H](CCCCN)C(=O)NCCNc1cccc2c(S(=O)(=O)O)cccc12) [Substrate#4]” the Enzyme [6, 10] was 1077 +/− 35 and the Saliva [7, 11] was 1515 +/− 40.

In the case of “Dabcyl-KTSAVLQSGFRKME-EDANS [Commercial substrate, reference compound]”, the “Enzymatic activity, Slope, HRV” value [8, 12] is reported as 87 RFU/min, the “% Enz activity, HRV” value [8] is reported as 1% and the Saliva [7, 11] is reported as 2309 +/− 64. The “Enzymatic activity, Slope, HCoV-229E” value ([9]; Table 4: substrate 5 uM) was 493 RFU/min, the “% Enz activity, HCoV-229E” value [9] was 26% and the “cross reactivity SARS-CoV-2 versus HCoV-229E protease” value [9] was “greater activity towards SARS-CoV-2 than HCoV-229E protease”.

“Dabcyl-LEALFQGP[Asp-(EDANS) SQ [Amide] ({Dabcyl′}-LEALFQGPD(EDANS)SQ-NH2; SMILES CC(C)C[C@H](NC(=O)c1ccc(/N=N/c2ccc(N(C)C)cc2)cc1)C(=O)N[C@@H](CCC(=O)O)C(=O)N[C@@H](C)C(=O)N[C@@H](CC(C)C)C(=O)N[C@@H](Cc1ccccc1)C(=O)N[C@@H](CCC(N)=O)C(=O)NCC(=O)N1CCC[C@H]1C(=O)N[C@@H](CC(=O)NCCNc1cccc2c(S(=O)(=O)O)cccc12)C(=O)N[C@@H](CO)C(=O)N[C@@H](CCC(N)=O)C(N)=O) [Biosyn#7]” was tested, and the “Enzymatic activity, Slope, SARS-CoV-2” value ([6]; Table 4: substrate 5 uM) was 43 RFU/min, the “% Enz activity, SARS-CoV-2” value [6] was 0% and the “Enzymatic activity, Slope, HRV” value [8, 12] was 1041 RFU/min. For the same molecule, the “% Enz activity, HRV” value [8] was 100%, the “specificity for HRV” value ([8]; substrate 5 uM, enzyme 150 ng/reaction) was “specific for HRV” and the “Enzymatic activity, Slope, HCoV-229E” value ([9]; Table 4: substrate 5 uM) was 45 RFU/min. For the same molecule, the “% Enz activity, HCoV-229E” value [9] was 0%.

With “Dabcyl-TSAVLQSGF-EDANS ({Dabcyl′}-TSAVLQSGF-{EDANS}; SMILES CC(C)C[C@H](NC(=O)[C@@H](NC(=O)[C@H](C)NC(=O)[C@H](CO)NC(=O)[C@@H](NC(=O)c1ccc(/N=N/c2ccc(N(C)C)cc2)cc1)[C@@H](C)O)C(C)C)C(=O)N[C@@H](CCC(N)=O)C(=O)N[C@@H](CO)C(=O)NCC(=O)N[C@@H](Cc1ccccc1)C(=O)NCCNc1cccc2c(S(=O)(=O)O)cccc12) [Substrate#2]” the Enzyme [6, 10] was 449 +/− 36 and the Saliva [7, 11] was 187 +/− 7.

In the case of Dabcyl-TSAVLQSGFRK-EDANS [Biosyn #1], the “Enzymatic activity, Slope, HRV” value [8, 12] is reported as −12 RFU/min, the “% Enz activity, HRV” value [8] is reported as −1* % and the Saliva [7, 11] is reported as 1123 +/− 35. For the same molecule, the “Enzymatic activity, Slope, HCoV-229E” value ([9]; Table 4: substrate 5 uM) was 856 RFU/min, the “% Enz activity, HCoV-229E” value [9] was 95% and the “cross reactivity SARS-CoV-2 versus HCoV-229E protease” value [9] was “Cross reactivity was detected”.

With “Dabcyl-TSAVLQSGFYK-EDANS ({Dabcyl′}-TSAVLQSGFYK-{EDANS}; SMILES CC(C)C[C@H](NC(=O)[C@@H](NC(=O)[C@H](C)NC(=O)[C@H](CO)NC(=O)[C@@H](NC(=O)c1ccc(/N=N/c2ccc(N(C)C)cc2)cc1)[C@@H](C)O)C(C)C)C(=O)N[C@@H](CCC(N)=O)C(=O)N[C@@H](CO)C(=O)NCC(=O)N[C@@H](Cc1ccccc1)C(=O)N[C@@H](Cc1ccc(O)cc1)C(=O)N[C@@H](CCCCN)C(=O)NCCNc1cccc2c(S(=O)(=O)O)cccc12) [Substrate#5]” the Enzyme [6, 10] was 527 +/− 7 and the Saliva [7, 11] was 4688 +/− 53.

In the case of “Dabcyl-YGSTLQAGLRK-EDANS ({Dabcyl′}-YGSTLQAGLRK-{EDANS}; SMILES CC(C)C[C@H](NC(=O)CNC(=O)[C@H](C)NC(=O)[C@H](CCC(N)=O)NC(=O)[C@H](CC(C)C)NC(=O)[C@@H](NC(=O)[C@H](CO)NC(=O)CNC(=O)[C@H](Cc1ccc(O)cc1)NC(=O)c1ccc(/N=N/c2ccc(N(C)C)cc2)cc1)[C@@H](C)O)C(=O)N[C@@H](CCCNC(=N)N)C(=O)N[C@@H](CCCCN)C(=O)NCCNc1cccc2c(S(=O)(=O)O)cccc12) [Biosyn#6]”, the “Enzymatic activity, Slope, SARS-CoV-2” value ([6]; Table 4: substrate 5 uM) is reported as 349 RFU/min, the “% Enz activity, SARS-CoV-2” value [6] is reported as 190% and the “Enzymatic activity, Slope, HRV” value [8, 12] is reported as 44 RFU/min. The “% Enz activity, HRV” value [8] was −7* %, the “Enzymatic activity, Slope, HCoV-229E” value ([9]; Table 4: substrate 5 uM) was 213 RFU/min and the “% Enz activity, HCoV-229E” value [9] was 100%. The “cross reactivity SARS-CoV-2 versus HCoV-229E protease” value [9] was “greater activity towards SARS-CoV-2 than HCoV-229E protease”.

“[BHQ-1]-AVLQSGF-[Cys(AF488)]-RK-amide ({BHQ‑1}-AVLQSGFC(AF488)RK-NH2) [CBR #3]” was tested, and the Enzyme [6, 13] was 461 +/− 18 and the Saliva [7, 13] was 154 +/− 6.

In the case of “[BHQ-1]-AVLQSGFRK-[Cys(AF488)]-amide ({BHQ‑1}-AVLQSGFRKC(AF488)-NH2) [CBR #4]”, the Enzyme [6, 13] is reported as 657 +/− 6 and the Saliva [7, 13] is reported as 726 +/− 25.

In the case of “[BHQ-1]-TSAVLQSGF-[Cys(AF488)]-RK-amide ({BHQ‑1}-TSAVLQSGFC(AF488)RK-NH2; also: places amidation at residue 10) [CBR #2]”, the Enzyme [6, 13] is reported as 6425 +/− 41, the “Enzymatic activity, Slope, SARS-CoV-2” value ([6]; Table 6: substrate 1 μM) is reported as 3536 RFU/min and the signal to noise ([6]; enzyme versus saliva, Table 3 conditions) is reported as 12.5. For the same molecule, the “Enzymatic activity, Slope, HRV” value ([8]; Table 6: substrate 1 μM, enzyme 150 ng/reaction) was 9 RFU/min, the Saliva [7, 13] was 512 +/− 16 and the “Enzymatic activity, Slope, HCoV-229E” value ([9]; Table 6: substrate 1 μM) was 1116 RFU/min.

With “[BHQ-1]-TSAVLQSGFRK-[Cys(AF488)]-amide [CBR #1]” the Saliva [7, 13] was 1356 +/− 37.

B1: Eglin C (protein)
chain: TEFGSELKSFPEVVGKTVDQAREYFTLHYPQYDVYFLPEGSPVTLDLRYNRVRVFYNPGTNVVNHVPHVG
For B1, the “inhibition of 3CL specific activity” value [1] was “non significant inhibition”, the “non-specific protease activity in saliva” value [2] was “decreased” and the non-specific protease activity [3] was “decreased”. For the same molecule, the “ranking among 29 inhibitors tested” value [3] was “four best inhibitors” and the “inhibition of 3CL specific activity” value ([5]; buccal samples) was “non significant inhibition”.
